Measurements published in patent US4774238A, “Heterocyclic-methylene-penems” (Beecham Group plc, priority 1985, dated 1988).

Test: Solubility of the penem free acid in water
Type: physicochemical

solubility in water: only sparingly soluble
Compound: Cn1cc(/C=C2/C(=O)N3C(C(=O)O)=CS[C@H]23)nn1 [penem free acid, Crystalline (5R) (Z)-6-(1-Methyl-1,2,3-triazol-4-ylmethylene)penem-3-carboxylic acid]
